Four compounds from patent US7332476B2, “Pyridyl substituted ketolide antibiotics” (Novartis AG, priority 2003, dated 2008) can be followed below.

≈ marks a conversion by molar mass, not a printed value.

For data set [1], the system named is Enterococcus faecalis Enfa_29212. The data set can be described thus: MIC, broth microdilution (NCCLS). Format: cell-based. The following applies: in µg/mL (unit assumed); for MIC: Table 10, Strain ID E (Table 8): Enterococcus faecalis Enfa_29212. In outline:
(§1)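 NCCLS broth microdilution with 2-fold serial drug dilutions (methanol stocks diluted in water); inoculum 3×10^5–7×10^5 CFU/ml in CAMHB, with 2-5% lysed horse blood for S. pneumoniae. Incubation 18-24 h at 35° C., ambient air, except S. pneumoniae (5-10% CO2). MIC is lowest concentration preventing visible growth.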
For orientation: Dilution methods test growth across graded concentrations, often in twofold steps.

Data set [2] deals with Haemophilus influenzae Hain_49247. The data set can be described thus: MIC, broth microdilution (NCCLS). The note with it: unit assumed; for MIC: Table 10, Strain ID H (Table 8): Haemophilus influenzae Hain_49247. In kind it is cell-based.
Data set [3] concerns Staphylococcus aureus Stau_29213. Description: MIC, broth microdilution (NCCLS). Format: cell-based. The following applies: in µg/mL (unit assumed); for MIC: Table 10, Strain ID A (Table 8): Staphylococcus aureus Stau_29213. Summed up:
as §1

In data set [4] the test system is Staphylococcus epidermidis Step_14990. Description: MIC, broth microdilution (NCCLS). The note with it: in µg/mL (unit assumed); for MIC: Table 10, Strain ID C (Table 8): Staphylococcus epidermidis Step_14990. In kind it is cell-based. In outline: as §1
Data set [5] relates to Staphylococcus epidermidis Step_f50654. Description: MIC, broth microdilution (NCCLS). The note with it: in µg/mL (unit assumed); for MIC: Table 10, Strain ID D (Table 8): Staphylococcus epidermidis Step_f50654. In kind it is cell-based. Summed up:
as §1

Data set [6] deals with Streptococcus pneumoniae Stpn_Erm S 4297. Description: MIC, broth microdilution (NCCLS). In kind it is cell-based. The following applies: for MIC: Table 10, Strain ID R (Table 8): Streptococcus pneumoniae Stpn_Erm S 4297. In outline: as §1
Data set [7] relates to Streptococcus pneumoniae Stpn_Mef S 3427. The data set can be described thus: MIC, broth microdilution (NCCLS). Format: cell-based. The following applies: Table 10, Strain ID Q (Table 8): Streptococcus pneumoniae Stpn_Mef S 3427; in µg/mL (unit assumed). Summed up:
as §1

For data set [8], the system named is Streptococcus pyogenes Stpy_8668. Description: MIC, broth microdilution (NCCLS). The note with it: for MIC: Table 10, Strain ID G (Table 8): Streptococcus pyogenes Stpy_8668. Further details: MIC, strain ID G: unit not given beside the values. In kind it is cell-based. Summed up:
as §1

Data set [9] deals with Streptococcus pneumoniae Stpn_49619. Description: MIC, broth microdilution (NCCLS). In kind it is cell-based. Further details: MIC, strain ID M: unit not given beside the values. The note with it: for MIC: Table 10, Strain ID M (Table 8): Streptococcus pneumoniae Stpn_49619. Summed up: as §1
Data set [10] concerns Streptococcus pneumoniae Stpn_280-962. The data set can be described thus: MIC, broth microdilution (NCCLS). The arrangement: MIC, strain ID O: unit not given beside the values. The note with it: for MIC: Table 10, Strain ID O (Table 8): Streptococcus pneumoniae Stpn_280-962. Format: cell-based. Summed up:
as §1

The subject of data set [11] is Streptococcus pneumoniae Stpn_Mef 5654. Description: MIC, broth microdilution (NCCLS). Format: cell-based. Further details: MIC, strain ID R: unit not given beside the values. The following applies: for MIC: Table 10, Strain ID P (Table 8): Streptococcus pneumoniae Stpn_Mef 5654, in µg/mL (unit assumed). Summed up:
as §1

Data set [12] is described as follows: In vivo pharmacokinetic study in rats, plasma (IV and PO). The arrangement: species or system Sprague-Dawley rats. The note with it: rat; for half-life / AUC / clearance / Vd: male, Sprague-Dawley; for half-life: 5 mg/kg, read-out: t1/2, IV Plasma (converted); for clearance / Vd: intravenous; for Vd: read-out: Vss; for F, PO: PO = 15 mg/kg. On the procedure: (§2) Animal Models. A total of 54 male Sprague-Dawley rats, weighing 200 grams in average, were evaluated for pharmacokinetic studies of representative pyridyl substituted ketolides. Rats were under overnight food restriction and received water ad libitum. Rats were acclimated for approximately 5 days before antibiotic administration.
(§3) Antibiotic Administration. Rats were given bolus administration through (IV) and oral (PO) routes. Representative pyridyl substituted ketolides and telithromycin, for comparison, were diluted in 0.85% saline to a concentration of 15.0 mg/ml, and the resulting pH was adjusted using 1N acetic acid until the compound was in solution. Approximately 200 microliters of the compound solution was administered to the rats. The target dose for IV and PO administration was 5 mg/kg and 15 mg/kg, respectively.
(§4) Sample Collection. Plasma and whole lung samples were collected from the rats. Plasma samples were obtained from blood samples by centrifugation at 3000 RPM for 10 min. Heparin was added in the plasma as an anticoagulant. Whole lung samples were homogenized in deionized water. Samples were stored at −80° C. A total of 9 time points were collected in triplicate at 0.083, 0.25, 0.5, 1, 2, 4, 6, 8, and 24 hrs. Ketolide concentrations in plasma and lung were determined by well-established non-GLP LC-MS-MS methods. PK parameters were estimated from the raw bioanalytical data using WinNolin software (Version 4.0, Pharsight Corporation, CA). […] All representative compounds were compared to telithromycin.

Data set [13] can be described thus: In vivo pharmacokinetic study in rats, whole lung (IV and PO). The following applies: male, Sprague-Dawley, 5 mg/kg, rat; for half-life: IV, whole lung, read-out: t1/2, IV Lung (converted); for Kp: lung/plasma, iv, read-out: L/P ratio, IV. As for the experimental part:
as §2, §3, §4

Where [14] appears, read: plasma, IV, dose IV = 5 mg/kg (Compound XIV: IV = 15).

One may read the AUC as the area under the concentration-time curve, a measure of exposure.

Regarding `CC[C@H]1OC(=O)[C@@](C)(F)C(=O)[C@H](C)[C@@H](OC2O[C@H](C)C[C@H](N(C)C)[C@H]2O)[C@@](C)(OC)C[C@@H](C)C(=O)[C@H](C)[C@H]2N(CCCCn3cnc(-c4ccc(C)nc4)c3)C(=O)O[C@]12CC` (some centres unmarked) [XIV], the MIC in [1] worked out at 0.2; in data set [2], 6.25 µg/mL (≈ 7.28 µM); in data set [3] it was 0.2; in data set [4] it was 0.2; in [5] it was 0.4; in data set [6] (unit assumed), 0.1 µg/mL (≈ 0.117 µM). The MIC was 0.1 in [7]; “=0.05” in [8]; “=0.05” in data set [9]; “=0.05” in [10]; 0.78 in data set [11]. The half-life was 2.3 h in [12] (IV, plasma) and 3.6 h in data set [13]. In data set [12] (setting [14]), this compound returned an AUC of 3300 ng·h/mL. The compound also showed a clearance in data set [12] (plasma) of 70 mL/min/kg. The Vd in data set [12] (plasma) is 13 L/kg. In data set [12], the “F, PO” value came out at 43%. Further, the Kp in data set [13] came out at 83.

As for `C=C[C@]12OC(=O)N(CCCCn3cnc(-c4ccc(C)nc4)c3)[C@@H]1[C@@H](C)C(=O)[C@H](C)C[C@](C)(OC)[C@H](OC1O[C@H](C)C[C@H](N(C)C)[C@H]1O)[C@@H](C)C(=O)[C@@H](C)C(=O)O[C@@H]2CC` (some centres unmarked) [XVI], the MIC in [1] was 0.1; in [2], 6.25 µg/mL (≈ 7.46 µM); in data set [3] it was 0.2; in data set [4], 0.2; in data set [5] it was 0.2; in data set [6] it was “=0.05”. The MIC is listed as 0.1 in data set [7]; “=0.05” in data set [8]; “=0.05” in data set [9]; “=0.05” in [10]; 0.78 in [11]. The half-life in data set [12] (IV, plasma) is 1.6 h; in data set [13], 3.4 h. The AUC in [12] (setting [14]) was 2100 ng·h/mL. The clearance in data set [12] (plasma) turned out to be 115 mL/min/kg. Further, the Vd in [12] (plasma) turned out to be 14 L/kg. The “F, PO” value in data set [12] is recorded as 35%. Moreover, the Kp in data set [13] was 80.

As to `C=C[C@]12OC(=O)N(CCCCn3cnc(-c4ccc(OC)nc4)c3)[C@@H]1[C@@H](C)C(=O)[C@H](C)C[C@](C)(OC)[C@H](OC1O[C@H](C)C[C@H](N(C)C)[C@H]1O)[C@@H](C)C(=O)[C@@H](C)C(=O)O[C@@H]2CC` (some centres unmarked) [XVIII], the MIC in data set [1] is 0.1; in data set [2], 6.25 µg/mL (≈ 7.32 µM); in [3] it was 0.2; in data set [4] it was 0.2; in data set [5], 0.2; in data set [6] (unit assumed) it was 0.1 µg/mL (≈ 0.117 µM). The MIC is given as 0.2 in [7]; “=0.05” in [8]; “=0.05” in [9]; “=0.05” in data set [10]; 0.78 in data set [11]. The half-life is 1.7 h in [12] (IV, plasma) and 3.1 h in [13]. The compound also showed an AUC in [12] (setting [14]) of 2600 ng·h/mL. In addition, the clearance in data set [12] (plasma) amounted to 91 mL/min/kg. The Vd in data set [12] (plasma) was determined as 11 L/kg. For the same compound, the “F, PO” value in data set [12] was 51%. Also, in data set [13], the Kp stood at 110.

`CC[C@H]1OC(=O)[C@H](C)C(=O)[C@H](C)[C@@H](O[C@@H]2O[C@H](C)C[C@H](N(C)C)[C@H]2O)[C@](C)(OC)C[C@@H](C)C(=O)[C@H](C)[C@H]2N(CCCCn3cnc(-c4cccnc4)c3)C(=O)O[C@]12C` [Telithromycin, telithromycin, reference compound]: the MIC in data set [1] is 0.1-0.2; in [2], 3.13 µg/mL (≈ 3.85 µM); in data set [3] it was 0.1-0.2; in [4] it was 0.1-0.2; in [5], 0.1-0.2; in [6] it was “=0.1”. The MIC was 0.1-0.2 in data set [7]; “=0.05” in data set [8]; “=0.05” in data set [9]; “=0.05” in data set [10]; 0.2-0.78 in data set [11]. The “MIC, strain ID E” value in data set [1] (strain ID E, broth microdilution) is listed as 0.1-0.2. Besides, in [2] (strain ID H, broth microdilution), the MIC, strain ID H came out at 3.13 µg/mL (≈ 3.85 µM). Besides, the “MIC, strain ID A” value in [3] (strain ID A, broth microdilution) is 0.1-0.2. In data set [4] (strain ID C, broth microdilution), the “MIC, strain ID C” value is listed as 0.1-0.2. For the same compound, the “MIC, strain ID D” value in [5] (strain ID D, broth microdilution) is on record as 0.1-0.2. Also, the “MIC, strain ID Q” value in [6] (strain ID Q, broth microdilution, in µg/mL (unit assumed)) is reported as 0.1-0.2. Moreover, the “MIC, strain ID G” value in data set [8] (strain ID G, broth microdilution) is on record as “=0.05”. For the same compound, in data set [9] (strain ID M, broth microdilution), the “MIC, strain ID M” value is reported as “=0.05”. In addition, the “MIC, strain ID O” value in data set [10] (strain ID O, broth microdilution) was “=0.05”. Moreover, the “MIC, strain ID R” value in data set [11] (strain ID R, broth microdilution) was “=0.1”. Moreover, in data set [12] (IV, dose IV = 5 mg/kg (Compound XIV: IV = 15)), the “AUC, IV” value stood at 2500 ng·h/mL. For the same compound, in data set [12] (IV, plasma), the “t1/2, IV Plasma” value is listed as 1.0 h. Also, the “F, PO” value in data set [12] was 11%. Further, the half-life in data set [13] was 1.3 h. For the same compound, the Kp in data set [13] worked out at 16.
